Reference: patent US8729034B2, “Pharmaceutical composition having virucidal and spermicidal activity” (priority 2007, dated 2014)
Entries after “also recorded” stand apart in the source; their conditions may differ. Read-outs that look alike come from different tables or passages of the source.

Legend:
Assay type in all cases: cell-based
[1] = test system: HIV; assay: Inactivation of HIV in vitro (summary statements)
Method: (§1) Human CD4+ T cell line CEM-GFP cells were infected with HIV-1 NL-4.3 virus pretreated without or with Ac-B at varying concentrations (1 hour at 37 degree C.) at a multiplicity of infection (MOI) of 0.01. The cells were then cultured in the presence or absence of Ac-B for up to 7 days post infection. Virus production was analyzed in the culture supernatant on day-7 post infection by p24 antigen capture ELISA
P4 (Hela-CD4-LTR-β Gal) cells were infected with 0.05 MOI of NL4.3 virus pretreated without or with Ac-B at varying concentrations (1 hour at 37 degree C.) followed by incubation for 48 hours in the presence or absence of Ac-B at a concentration of 0.5 to 2.5 microgram per ml. Virus production was analyzed by ELISA of p24 antigen in the culture supernatant. Viral transmission in the transfected cells was evaluated by X-gal staining, in which an antiretroviral therapeutic drug, Azidothymidine (AZT) was used as positive control.

[2] = test system: Lactobacillus acidophilus
Method: The media for culture of bacteria purchased from HI-MEDIA, India and spores of Lactobacillus acidophilus were obtained from pharmaceutical capsule marketed by Infer (India) Limited.
Sterile, molten (45-50 degree C.) Lactobacilli MRS agar was poured into sterile Petri dishes with (a) 1, 10, 100, 200, 500 mg of Ac-B (Experimental) and (b) without Ac-B (Control). The plates were placed within an incubator having 37 degree C. inside temperature and 5% CO2 in air for 72 hours. The number of colonies and their individual size were compared.

[3] = test system: rat spermatozoa; assay: Hypo-osmotic swelling (HOS) test
Method: A hypotonic solution was prepared by dissolving 0.735 g sodium citrate dehydrate and 1.351 g fructose in 100 ml distilled water (Milli Q). Aliquots of this solution kept frozen in −20 degree C. and thawed before use. For the test, 200 microliters of working suspension of rat spermatozoa was treated with one ml of Ac-B solution (at MEC) or BWW (as control) for 20 seconds followed by washing with BWW medium and centrifugation at 1000 rpm for 5 min. Finally the sperm pellet was resuspended in 0.1 ml BWW medium. One ml of prewarmed (37 degree C.) HOS solution was added to the suspension and incubated for one hour at 37 degree C. The incubated sperms were examined under a phase contrast microscope at ×400 magnification to observe the curling of tails. Two hundred spermatozoa were examined for each sample.

[4] = test system: human sperm; assay: Live/dead staining (SYBR-14 / propidium iodide) of treated sperm
Method: Live/dead staining kit (Invitrogen: Paisley, UK), using SYBR-14 in combination with propidium iodide (PI) was used for the purpose.
The SYBR-14 was prepared in anhydrous methyl sulfoxide (DMSO) at a concentration of 1 mg/ml. A working solution of SYBR-14 diluted 1:10 with DMSO was used for staining the sperm. The PI was dissolved in Tyrode's salt solution at 2 mg/ml.
The human sperm samples, pre-treated without (control) or with Ac-B (experimental) and Nonoxynol 9 (positive control) were incubated for 15 min at 36 degree C. before examination. […] The fluorescent staining of sperm was monitored and photographed with a Zeiss Axiophot epifluorescent microscope (Carl Zeiss Inc., Thornwood, N.Y.) equipped with a fluorescein isothiocyanate filter set (Zeiss #487909).
Viability of Ac-B-treated human spermatozoa was evaluated using a dual fluorescent live/dead staining kit (Invitrogen; Paisley, UK) consisting of SYBR 14 and propidium iodide (PI). PI cannot penetrate living cells but can bind to and stain cellular DNA in damaged cells giving them red fluorescence. On completion of staining reaction, proportionate distribution of green (live) and red (dead) stained spermatozoa was recorded using dual emission filter for SYBR14 and propidium iodide. In the control set all sperms were stained green but the Ac-B-treated spermatozoa (125 mcg/ml) were stained red.

[5] = test system: HIV-1 NL-4.3 virus; settings: for Percentage inhibition of hiv growth in CEM-GFP T cell line, Without Pretreatment: untreated virus
Method: as §1

[6] = test system: human spermatozoa; assay: Penetrak Test (bovine cervical mucus penetration test); settings: treated at MEC, washed; 1 hour; BWW control about 27(±3) mm
Method: The bovine cervical mucus penetration test was performed using the Penetrak kit (Serono Diagnostics, Allentown, Pa.).
Working suspension of human spermatozoa, prepared as above was treated in vitro with Ac-B at MEC, washed and resuspended in pre-equilibrated BWW medium. For the negative control set, same treatment was given to the sperms in BWW medium. Flat-capillary tubes filled with periovulatory mid-cycle bovine cervical mucus, in duplicate, were thawed at room temperature for 30 minutes and snapped at the red score mark above the mucus meniscus. The cut end was placed in tube containing treated/control washed sperm suspension and placed inside a CO2 incubator for 1 hour. The capillary tubes were then taken out, cleaned to remove superficially attached sperms, placed on a calibrated slide and examined by phase contrast microscopy (at ×400). The vanguard sperm was located and the distance (in mm) covered by it was measured to score the penetrating capacity of a sperm of the test sets.

## Acaciaside-B [Ac-B]
[1]
  Dose level preventing HIV infection in vitro: greater than or equal to 1.0 microgram per ml
[2]
  Dose level not affecting growth of Lactobacillus acidophilus: ≥ 500 mg/mL
  Size of Lactobacillus colonies grown in the presence of Ac-B: comparable to that of control
[3]; Ac-B at MEC for 20 seconds, 1 hour in HOS solution at 37 degree C
  Response to HOS (HOS+), Hypo-osmotic Swelling Test: 0% (HOS+)
[3]; Ac-B treated
  HOS reactivity (curling of tails) of treated spermatozoa: no HOS reactivity; also recorded: absence of curling
[4]; Ac-B 125 mcg/ml, green = live, red = dead
  Live/dead staining colour of treated spermatozoa: stained red
[4]; human sperm pre-treated with Ac-B
  Percentage of dead spermatozoa, Live/dead staining: 92 (±5)%
[5]; Ac-B 0.1 microgram per ml, day-7 p24
  Percentage inhibition of hiv growth in CEM-GFP T cell line, Without Pretreatment: 0%
[5]; Ac-B 0.1 microgram per ml, virus pretreated 1 hour at 37 degree C, day-7 p24
  Percentage inhibition of hiv growth in CEM-GFP T cell line, Pretreatment with Ac-B: 70.5%
[5]; Ac-B 0.2 microgram per ml
  Percentage inhibition of hiv growth in CEM-GFP T cell line, Without Pretreatment: 0%
[5]; Ac-B 0.2 microgram per ml, virus pretreated
  Percentage inhibition of hiv growth in CEM-GFP T cell line, Pretreatment with Ac-B: 77.8%
[5]; Ac-B 0.25 microgram per ml
  Percentage inhibition of hiv growth in CEM-GFP T cell line, Without Pretreatment: 0%
[5]; Ac-B 0.25 microgram per ml, virus pretreated
  Percentage inhibition of hiv growth in CEM-GFP T cell line, Pretreatment with Ac-B: 92%
[5]; Ac-B 0.5 microgram per ml
  Percentage inhibition of hiv growth in CEM-GFP T cell line, Without Pretreatment: 36.1%
[5]; Ac-B 0.5 microgram per ml, virus pretreated
  Percentage inhibition of hiv growth in CEM-GFP T cell line, Pretreatment with Ac-B: 90.6%
[5]; Ac-B 1 microgram per ml
  Percentage inhibition of hiv growth in CEM-GFP T cell line, Without Pretreatment: 60.5%
[5]; Ac-B 1 microgram per ml, virus pretreated
  Percentage inhibition of hiv growth in CEM-GFP T cell line, Pretreatment with Ac-B: 99.73%
[5]; Ac-B 1.5 microgram per ml
  Percentage inhibition of hiv growth in CEM-GFP T cell line, Without Pretreatment: 100%
[5]; Ac-B 1.5 microgram per ml, virus pretreated
  Percentage inhibition of hiv growth in CEM-GFP T cell line, Pretreatment with Ac-B: 100%
[5]; Ac-B 2 microgram per ml
  Percentage inhibition of hiv growth in CEM-GFP T cell line, Without Pretreatment: 100%
[5]; Ac-B 2 microgram per ml, virus pretreated
  Percentage inhibition of hiv growth in CEM-GFP T cell line, Pretreatment with Ac-B: 100%
[5]; Ac-B 2.5 microgram per ml
  Percentage inhibition of hiv growth in CEM-GFP T cell line, Without Pretreatment: 100%
[5]; Ac-B 2.5 microgram per ml, virus pretreated
  Percentage inhibition of hiv growth in CEM-GFP T cell line, Pretreatment with Ac-B: 100%
[5]; cells infected with untreated virus, cultured in the presence of Ac-B 0.1 to 2.5 microgram per ml
  Inhibition of viral transmission, untreated virus: only partial inhibition
[6]
  Penetration of vanguard sperm into bovine cervical mucus column: capillary was devoid of sperm inside the mucus column
